Literature values, collected in article PMC7395068, “The evolution of strategies to minimise the risk of human drug-induced liver injury (DILI) in drug discovery and development” (Archives of Toxicology, 2020).
Where two headings read alike, the source gives them in different places.

Experiments:
[1] = test system: human hepatocytes; settings: In vitro Assay; ref Xu 2008; cited from earlier work
[2] = test system: PHH spheroids; settings: In vitro Assay; ref Vorrink 2018; cited from earlier work
[3] = cited from earlier work
[4] = test system: HepG2 cells; settings: In vitro Assay; ref Persson 2013; cited from earlier work
[5] = test system: PHH; settings: cited from earlier work
[6] = test system: hLiMTs; settings: cited from earlier work
[7] = test system: HepG2 cells; settings: cited from earlier work
[8] = test system: rBsep; settings: cited from earlier work
[9] = ref Chen 2016; cited from earlier work
[10] = test system: THLE or HepG2 cells, isolated mitochondria, BSEP; settings: In vitro Assay; ref Aleo 2019; cited from earlier work
[11] = In vitro Assay, ref Proctor 2017
[12] = In vitro Assay, ref O'Brien 2006
[13] = In vitro Assay, ref Dawson 2012

Clc1ccc(COC(Cn2ccnc2)c2ccc(Cl)cc2Cl)c(Cl)c1 (stereo not drawn) [miconazole]
Structural based (HCI) [1]: -VE
hLiMTs ATP <20 x Cmax [2]: -VE

CCc1c(C)[nH]c2c1C(=O)C(CN1CCOCC1)CC2 (stereo not drawn) [molindone]
In vivo DILI ([3]; ref Vorrink 2018): +VE
In vivo DILI ([3]; ref Xu 2008): +VE
Structural based (HCI) [1]: -VE
hLiMTs ATP <20 x Cmax [2]: -VE

COc1ccc2cc([C@H](C)C(=O)O)ccc2c1 [naproxen]
Cluser analysis [4]: -VE
Structural based (HCI) [4]: -VE
PHH ATP <100uM [5, 11]: -VE
hLiMTs ATP <100uM [6, 11]: -VE
Structural based (HCI) [7, 12]: -VE

COC(=O)C1=C(C)NC(C)=C(C(=O)OC)C1c1ccccc1[N+](=O)[O-] [nifedipine]
Inhibition of rBsep cutoff<3 [8]: +VE

COCCOC(=O)C1=C(C)NC(C)=C(C(=O)OC(C)C)C1c1cccc([N+](=O)[O-])c1 (stereo not drawn) [nimodipine]
Structural based (HCI) [1]: +VE
hLiMTs ATP <20 x Cmax [2]: +VE (IC20 < 20 × Cmax.tot cut-off)

COC(=O)C1=C(C)NC(C)=C(C(=O)OCC(C)C)C1c1ccccc1[N+](=O)[O-] (stereo not drawn) [nisoldipine]
In vivo DILI ([3]; […]): -VE
In vivo DILI ([3]; ref Vorrink 2018): -VE
In vivo DILI ([3]; ref Xu 2008): -VE
Structural based (HCI) [1]: -VE
hLiMTs ATP <20 x Cmax [2]: -VE
DILI +VE (5-8), DILI -VE (-4) [9]: -VE
DILI severity category [9]: Ambiguous DILI-concern

Nc1ccc(/N=N/c2ccccc2)c(N)n1 [phenazopyridine]
Partition Hybrid HRM Score [10]: +VE
Ro2 Hybrid HRM Score [10]: -VE
In vivo DILI ([3]; ref Aleo 2019): -VE
In vivo DILI ([3]; ref Vorrink 2018): +VE
In vivo DILI ([3]; ref Xu 2008): +VE
Structural based (HCI) [1]: -VE
hLiMTs ATP <20 x Cmax [2]: -VE

NNCCc1ccccc1 [phenelzine]
In vivo DILI ([3]; […]): +VE
In vivo DILI ([3]; ref Vorrink 2018): -VE
In vivo DILI ([3]; ref Xu 2008): -VE
Structural based (HCI) [1]: -VE
hLiMTs ATP <20 x Cmax [2]: -VE
DILI +VE (5-8), DILI -VE (-4) [9]: +VE
DILI severity category [9]: vLess-DILI-Concern

[H]/N=C(/N)N/C(=N/[H])NCCc1ccccc1 [phenformin]
PHH ATP <100uM [5, 11]: +VE (IC50 threshold of 100 µM)
hLiMTs ATP <100uM [6, 11]: +VE (IC50 threshold of 100 µM)
In vivo DILI ([3]; ref O'Brien 2006): -VE
In vivo DILI ([3]; ref Proctor 2017): +VE
Structural based (HCI) [7, 12]: +VE (lowest HCI endpoint IC50 (or in the absence of dose–response < 100 µM) < 30 × total human plasma exposure levels (Cmax.tot))

CC[C@@H]1C(=O)OC[C@@H]1Cc1cncn1C [pilocarpine]
In vivo DILI ([3]; ref Vorrink 2018): -VE
In vivo DILI ([3]; ref Xu 2008): -VE
Structural based (HCI) [1]: -VE
hLiMTs ATP <20 x Cmax [2]: -VE
DILI +VE (5-8), DILI -VE (-4) [9]: -VE
DILI severity category [9]: Ambiguous DILI-concern

CC(C)NCC(O)COc1cccc2[nH]ccc12 (stereo not drawn) [pindolol]
In vivo DILI ([3]; ref Vorrink 2018): -VE
In vivo DILI ([3]; ref Xu 2008): -VE
hLiMTs ATP <20 x Cmax [2]: -VE
DILI +VE (5-8), DILI -VE (-4) [9]: -VE
DILI severity category [9]: vNo-DILI-Concern

O=C(C1CCCCC1)N1CC(=O)N2CCc3ccccc3C2C1 (stereo not drawn) [praziquantel]
Structural based (HCI) [7, 12]: +VE
Inhibition of rBsep cutoff<1& cmax u>.2 [8, 13]: -VE
Inhibition of rBsep cutoff<3 [8, 13]: +VE

CCN(CC)CCCC(C)Nc1c2ccc(Cl)cc2nc2ccc(OC)cc12 (stereo not drawn) [quinacrine]
PHH ATP <100uM [5]: +VE (key: +VE: IC50 threshold of 100 µM)
hLiMTs ATP <100uM [6]: +VE (key: +VE: IC50 threshold of 100 µM)
In vivo DILI ([3]; in vivo): +VE
Structural based (HCI) [7]: +VE (key: +VE: lowest HCI endpoint IC50 (or in the absence of dose–response < 100 µM) < 30 × total human plasma exposure levels (Cmax.tot))

CCOC(=O)[C@H](CCc1ccccc1)N[C@@H](C)C(=O)N1Cc2ccccc2C[C@H]1C(=O)O [quinapril]
In vivo DILI ([3]; ref Vorrink 2018): +VE
In vivo DILI ([3]; ref Xu 2008): +VE
Structural based (HCI) [1]: -VE
hLiMTs ATP <20 x Cmax [2]: -VE
DILI +VE (5-8), DILI -VE (-4) [9]: +VE
DILI severity category [9]: vLess-DILI-Concern

O=C(c1ccc(OCCN2CCCCC2)cc1)c1c(-c2ccc(O)cc2)sc2cc(O)ccc12 [raloxifene]
In vivo DILI ([3]; […]): -VE
In vivo DILI ([3]; ref Vorrink 2018): -VE
In vivo DILI ([3]; ref Xu 2008): -VE
Structural based (HCI) [1]: -VE
hLiMTs ATP <20 x Cmax [2]: -VE
DILI +VE (5-8), DILI -VE (-4) [9]: -VE
DILI severity category [9]: vNo-DILI-Concern

CC(C)c1nc(N(C)S(C)(=O)=O)nc(-c2ccc(F)cc2)c1/C=C/[C@@H](O)C[C@@H](O)CC(=O)O [rosuvastatin]
PHH ATP <100uM [5, 11]: +VE (IC50 threshold of 100 µM)
hLiMTs ATP <100uM [6, 11]: +VE (IC50 threshold of 100 µM)
In vivo DILI ([3]; ref O'Brien 2006): +VE
In vivo DILI ([3]; ref Proctor 2017): +VE
Structural based (HCI) [7, 12]: +VE (lowest HCI endpoint IC50 (or in the absence of dose–response < 100 µM) < 30 × total human plasma exposure levels (Cmax.tot))
DILI +VE (5-8), DILI -VE (-4) [9]: +VE
DILI severity category [9]: vLess-DILI-Concern

O=C(O)c1cc(/N=N/c2ccc(S(=O)(=O)Nc3ccccn3)cc2)ccc1O [sulfasalazine]
Structural based (HCI) [1]: +VE
hLiMTs ATP <20 x Cmax [2]: +VE (IC20 < 20 × Cmax.tot cut-off)

CC(C)(C)c1ccc(C(O)CCCN2CCC(C(O)(c3ccccc3)c3ccccc3)CC2)cc1 (stereo not drawn) [terfenadine]
hLiMTs ATP <20 x Cmax [2]: -VE
